Values quoted from earlier work, collected in patent publication US7364905B2, “Apparatus and method for high throughput analysis of compound-membrane interactions” (TechElan, LLC, priority 2001, dated 2008).

Test system: Caco-2 cells
Conditions: Caco-2 cell mono-layer versus gut

**Q.** For `OC[C@@H](O)[C@@H](O)[C@H](O)[C@H](O)CO` [mannitol], which “rate of permeation through the cell mono-layer relative to through the gut” value is on record?
**A.** The value was “fifty to three hundred and sixty times lower”.
